Results on three compounds are retold here after paper PMC3651166, “Differential Cytotoxic Activity of a Novel Palladium-Based Compound on Prostate Cell Lines, Primary Prostate Epithelial Cells and Prostate Stem Cells” (PLoS ONE, 2013).

For test [1], the system named is PNT2-C2, BPH-1, P4E6, PC-3 and LNCaP. The test is described as follows: Flow cytometry cell cycle analysis, cell lines. Conditions: PNT2-C2, PC3 and LNCaP cell lines, 48 h post-treatment. Format: cell-based, human. On the procedure:
(§1) Following drug treatment, floating cells in the media were pooled with adherent cells, which were collected by trypsinisation. Following centrifugation cells were resuspended in 0.5 ml PBS. Cells were fixed in 2 ml ice cold 70% ethanol, which was added in a dropwise fashion while vortexing. Cells were incubated on ice for 30 min then washed in 5 ml PBS and resuspended in 0.4 ml PBS. Following storage at 4°C overnight, 50 µl of RNAse (1 mg/ml) and 50 µl of propidium iodide (1 mg/ml) were added to the cells. Following incubation at 37°C for 30 min the cells were analysed for 2N and 4N DNA content on a flow cytometer (Cyan ADP Analyser, Beckman Coulter).

Test [2] relates to primary prostate epithelial cells. The experiment in a line: Flow cytometry cell cycle analysis, primary cells. The note with it: primary prostate epithelial cells, 48 h post-treatment. The class given is cell-based, human. On the procedure:
as §1

Test [3] has as its system stem cells (SCs), transit-amplifying cells (TAs) and committed basal cells (CBs). The test is described as follows: ATP viability assay on fractionated primary cells. Format: cell-based. Conditions: 25 µM, ATP assay, not statistically significant. Here is the method:
Epithelial cells from human tumour or BPH materials were cultured for several weeks and the cells treated at very low passages. The cultured basal cell population were trypsinized, resuspended in SCM and then plated on BSA-blocked collagen I-coated plates. […] The cells that attached to substratum were trypsinised, resuspended in MACs buffer and incubated with CD133-microbeads (Cat no. 130-050-801, Miltenyi Biotec Inc., Auburn, CA, USA). MACs MS columns (Cat no. 130-042-201, Miltenyi Biotec Inc., Auburn, CA, USA) were used to select the CD133^+ and CD133^− cells. Finally, the three cell populations were obtained: stem cells (SCs) - α2β1integrin^hi/CD133^+, transit-amplifying cells (TAs) - α2β1integrin^hi/CD133^− and committed basal cells (CBs) - α2β1integrin^lo.
This assay was employed for the bioluminescent determination of the adenosine 5′-triphosphate (ATP) released from fractionated living cells (cancer stem cells, transit amplifying cells and committed basal cells). As ATP is rapidly degraded in dead cells, high intracellular levels provide a selective assay for living cells. The ATP-bioluminescent somatic cell assay kit (FLASC, Sigma-Aldrich, Saint Louis, MO, USA) was used with protocol modifications. Briefly, 50–500 cells per well were seeded in a collagen-coated 96 well plate in triplicate. After treating cells for 72 h, 150 µL of medium was removed from each well. 50 µL of cell extraction reagent was added into each original well. Following 20 min incubation at RT, 50 µL of cell extract was transferred to a white 96-well plate. Finally, 50 µL of ATP assay mix solution was added into the wells and luminescence was read using a plate reader (PolarStar Optima, BMG Labtech, UK). Percent viability was calculated using the formula (% Viability = [(Sample RLU/Control RLU)]x100 where RLU refers to relative light units.

The test system of test [4] is cleaved caspase-3. The experiment in a line: Western blotting for apoptosis, cell lines. The class given is cell-based, human. Conditions: BPH-1, PNT2-C2 and P4E6 cells. On the procedure: (§2) Following drug treatment, cell lysates were harvested using Cytobuster Protein Extraction Reagent (71009, EMD Millipore, Darmstadt, Germany) with protease inhibitors (cOmplete, EDTA-free Protease Inhibitor Cocktail Tablets, Roche Applied Science, UK). 20 µg of protein extract were loaded on 12% SDS-PAGE gels and wet-transferred to a PVDF membrane. Antibodies used include: monoclonal anti-β-actin 1∶5000 (A5316, Sigma-Aldrich), anti-LC3B 1∶3000 (Ab51520, abcam), cleaved caspase-3 (Asp175) 1∶1000 (9661S, Cell Signaling Technology) and secondary antibodies were Rabbit anti-mouse-HRP 1∶10000 (P0260, Dako) and anti-rabbit IgG HRP-linked 1∶5000 (Cell Signaling Technology Inc. 7074S). Kaleidoscope protein marker was run on each gel (161-0324, Bio-Rad).

The subject of test [5] is LC3-II. The test is described as follows: Western blotting for autophagy, cell lines. Format: cell-based, human. The note with it: BPH-1, PNT2-C2 and P4E6 cells. Here is the method: as §2
The test system of test [6] is breast cancer cells. The arrangement: method as in PMID 21885165. The note with it: in vitro and in vivo; cited from earlier work.
The subject of test [7] is LC3-II. The experiment in a line: Western blotting and immunofluorescence for autophagy, primary cells. Format: cell-based, human. Conditions: all primary cells. Here is the method: γH2AX staining: Cells were seeded onto 8-well collagen I-coated chamber slides. […] After blocking of non-specific binding with 2% BSA in PBS with 1% goat serum for 1 hour at RT, primary antibody (anti-phospho-histone H2A.X (Ser139), clone JBW301, Millipore, Cat no. 05–636) at 1∶1000 dilution was added in 3% BSA in PBS at 4°C overnight followed by three washes in 0.5% BSA in PBS with 0.175% Tween 20. Following incubation with secondary antibody (Goat anti-mouse Alexa Fluor 568, Invitrogen, Cat no. A-11004) at 1∶1000 dilution for 45 min in 3% BSA in PBS and three more washes in the same washing buffer, the slides were mounted using Vectashield with DAPI (Vector Laboratories, Cat no. H-1200). LC3-B staining: Cells were treated as above then fixed with 4% paraformaldehyde, followed by an incubation in 0.3% Triton X-100. After blocking with 10% normal goat serum, cells were incubated in anti-LC3B 1∶200 (Ab51520, abcam) diluted in 0.1% Triton X-100 in PBS. Secondary antibody was Alexa Fluor 568 goat anti-rabbit IgG 1∶1000 (Invitrogen A11011).

For `COc1cc([C@@H]2c3cc4c(cc3[C@@H](O[C@@H]3O[C@@H]5CO[C@@H](C)O[C@H]5[C@H](O)[C@H]3O)[C@H]3COC(=O)[C@H]23)OCO4)cc(OC)c1O` [Etoposide, reference compound], the cell cycle effect result in test [1] and in test [2] was “S phase arrest” each time. Besides, the “viability of SCs versus TA and CB cells after treatment” value in test [3] is “SCs appeared to have increased viability compared to TA and CB cells”. Also, the “cleaved caspase-3 (apoptosis)” value in test [4] was “clear induction of cleaved caspase-3”. Also, the “LC3-II expression (autophagy)” value in test [5] is “did not significantly change levels of LC3-I and LC3-II”.

Turning to `O.O.O.O.O=C1[N-]S(=O)(=O)c2ccccc21.O=C1c2ccccc2S(=O)(=O)[N]1[Pd+].c1ccc(-c2cccc(-c3ccccn3)n2)nc1` [[Pd(sac)(terpy)](sac)·4 H2O], in test [6], the anti-growth activity result is listed as “powerful anti-growth activity”.

For the compound `N.N.[Cl][Pt][Cl]` [Cisplatin, reference compound], the cell cycle effect result in test [1] and in test [2] was “S phase arrest” each time. Further, the “cleaved caspase-3 (apoptosis)” value in test [4] is “clear induction of cleaved caspase-3”. Also, the “LC3-II (autophagy)” value in test [7] is “no significant change in LC3-I or LC3-II levels”. Besides, the “LC3-II expression (autophagy)” value in test [5] is “did not significantly change levels of LC3-I and LC3-II”.
